Tested on: weedy Eleusine indica
Test: Post-emergence herbicidal efficacy of L-glufosinate, other herbicides and their combinations in greenhouse trials (observed control vs Colby expected)
Type: in vivo
Conditions: for Control %: Table 1
Method: Evaluation of Post-Emergence Herbicidal Activity of Composition Under […]
Greenhouse trials were carried out to evaluate the efficacy of the combination of L-glufosinate and the other herbicides on weedy Eleusine indica.
The soil used was sandy clay loam—Sand: 68.0%; Silt: 8.0%; Clay: 24.0%.
All treatments were in 3 replications per treatment with a spray volume of […].
The expected efficacy of a combination of L-glufosinate and the other herbicides was calculated using the well-established Colby method. Any difference between the observed and “expected” efficacy could be attributed to synergy between the two compounds.
In the Colby method, the expected (or predicted) response of a combination of herbicides is calculated by taking the product of the observed response for each individual component of the combination when applied alone, divided by 100, and subtracting this value from the sum of the observed response for each component when applied alone. An unexpected enhancement in efficacy of the combination is then determined by comparing the observed response of the combination to the expected (or predicted) response as calculated from the observed response of each individual component alone. If the observed response of the combination is greater than the expected (or predicted) response, or stated conversely, if the difference between the observed and expected response is greater than zero, then the combination is said to be synergistic or unexpectedly effective (Colby, S. R., Weeds, 1967(15), p. 20-22). The Colby method requires only a single dose of each herbicide applied alone and the mixture of both doses. The formula used to calculate the expected efficacy (EE) which was compared with the observed efficacy (OE) to determine the efficacy of the present invention is explained herein below:
The expected efficacy for a combination of two active ingredients is as follows:
The expected efficacy for a combination of three active ingredients is as follows:
The percentage efficacy was calculated after 7, 14, 21, 28, 35 days of applications (DAA). The target weed was weedy Eleusine indica, and the concentration of the herbicide and the results are recorded in the table 1 below:
The percentage efficacy was calculated after 7 and 35 days of application (DAA). The target weed was weedy Eleusine indica, and the concentration of the herbicide and the results are recorded in the table 2 below:
The percentage efficacy was calculated after 3, 7, 14, 21, 28, 35 days of application (DAA). The target weed was weedy Eleusine indica, and the concentration of the herbicide and the results are recorded in the table 3 below:
The target weed was weedy Eleusine indica, and the concentration of the herbicide and the results are recorded in the table 4 below:
The percentage efficacy was calculated after 7, 14, 21, 28 and 35 days of application (DAA). The target weed was weedy Eleusine indica, and the concentration of the herbicide and the results are recorded in the table 5 below:
The percentage efficacy was calculated after 3, 7, 28, 35 days of application (DAA). The target weed was weedy Eleusine indica, and the concentration of the herbicide and the results are recorded in the table 6 below: […]

[1] = Table 4, 3 DAA, g ai/h: L-glufosinate 150, 2,4-D 204
[2] = Table 4, 7 DAA, g ai/h: L-glufosinate 150, 2,4-D 204
[3] = Table 4, 14 DAA, g ai/h: L-glufosinate 150, 2,4-D 204
[4] = Table 4, 21 DAA, g ai/h: L-glufosinate 150, 2,4-D 204
[5] = Table 4, 28 DAA, g ai/h: L-glufosinate 150, 2,4-D 204
[6] = Table 4, 35 DAA, g ai/h: L-glufosinate 150, 2,4-D 204
[7] = Table 5, 7 DAA, g ai/h: L-glufosinate 150, triclopyr 288
[8] = Table 5, 14 DAA, g ai/h: L-glufosinate 150, triclopyr 288
[9] = Table 5, 21 DAA, g ai/h: L-glufosinate 150, triclopyr 288
[10] = Table 5, 28 DAA, g ai/h: L-glufosinate 150, triclopyr 288
[11] = Table 5, 35 DAA, g ai/h: L-glufosinate 150, triclopyr 288
[12] = Table 2, 7 DAA, g ai/h: L-glufosinate 150, glyphosate 379
[13] = Table 2, 35 DAA, g ai/h: L-glufosinate 150, glyphosate 379
[14] = 7 DAA, dose a.i. g/h: L-glufosinate 150, oxyfluorfen 107.1, imazethapyr 75, carfentrazone 7.5
[15] = 14 DAA, dose a.i. g/h: L-glufosinate 150, oxyfluorfen 107.1, imazethapyr 75, carfentrazone 7.5
[16] = 21 DAA, dose a.i. g/h: L-glufosinate 150, oxyfluorfen 107.1, imazethapyr 75, carfentrazone 7.5
[17] = 28 DAA, dose a.i. g/h: L-glufosinate 150, oxyfluorfen 107.1, imazethapyr 75, carfentrazone 7.5
[18] = 35 DAA, dose a.i. g/h: L-glufosinate 150, oxyfluorfen 107.1, imazethapyr 75, carfentrazone 7.5
[19] = Table 3, 3 DAA, g ai/h: L-glufosinate 150, flumioxazin 30
[20] = Table 3, 7 DAA, g ai/h: L-glufosinate 150, flumioxazin 30
[21] = Table 3, 14 DAA, g ai/h: L-glufosinate 150, flumioxazin 30
[22] = Table 3, 21 DAA, g ai/h: L-glufosinate 150, flumioxazin 30
[23] = Table 3, 28 DAA, g ai/h: L-glufosinate 150, flumioxazin 30
[24] = Table 3, 35 DAA, g ai/h: L-glufosinate 150, flumioxazin 30
[25] = Table 6, 3 DAA, g ai/h: L-glufosinate 150, clethodim 45
[26] = Table 6, 7 DAA, g ai/h: L-glufosinate 150, clethodim 45
[27] = Table 6, 28 DAA, g ai/h: L-glufosinate 150, clethodim 45
[28] = Table 6, 35 DAA, g ai/h: L-glufosinate 150, clethodim 45
[29] = Table 7, 7 DAA, g ai/h: L-glufosinate 150, haloxyfop 50

Question: With O=C(O)COc1ccc(Cl)cc1Cl [2,4-D] as the molecule, how does the “% control” value [1] read?
Answer: 5%

Question: And the “% control” value [2]?
Answer: 4%

Question: And the “% control” value [3]?
Answer: 6.7%

Question: And the “% control” value [4]?
Answer: 5%

Question: What about the “% control” value [5] of the same molecule?
Answer: 5%

Question: What about the “% control” value [6] of the same molecule?
Answer: 0%

Question: Which “% control” value [7] does the source give for O=C(O)COc1nc(Cl)c(Cl)cc1Cl [Triclopyr, triclopyr] here?
Answer: 8%

Question: What about the “% control” value [8] of the same molecule?
Answer: 13.3%

Question: What about the “% control” value [9] of the same molecule?
Answer: 6.7%

Question: What about the “% control” value [10] of the same molecule?
Answer: 6.7%

Question: What about the “% control” value [11] of the same molecule?
Answer: 6.7%

Question: O=C(O)CNCP(=O)(O)O [Glyphosate, glyphosate] was tested. Which “% control” value [12] did it give?
Answer: 28.3%

Question: What about the “% control” value [13] of the same molecule?
Answer: 81.7%

Question: For CCc1cnc(C2=NC(C)(C(C)C)C(=O)N2)c(C(=O)O)c1 (stereo not shown) [Imazethapyr, imazethapyr], which Control % [14] is on record?
Answer: 8.3%

Question: And the Control % [15]?
Answer: 12%

Question: And the Control % [16]?
Answer: 12.7%

Question: What about the Control % [17] of the same molecule?
Answer: 12.7%

Question: What about the Control % [18] of the same molecule?
Answer: 10%

Question: What does the source list for C#CCN1C(=O)COc2cc(F)c(N3C(=O)C4=C(CCCC4)C3=O)cc21 [Flumioxazin, flumioxazin]?
Answer: % control [19]: 5.0%; % control [20]: 28.3%; % control [21]: 21.7%; % control [22]: 10%; % control [23]: 5%; % control [24]: 0%

Question: For Cc1nn(-c2cc(CC(Cl)C(=O)O)c(Cl)cc2F)c(=O)n1C(F)F (stereo not shown) [Carfentrazone, carfentrazone], which Control % [14] is on record?
Answer: 14%

Question: And the Control % (7 DAA, dose a.i. g/h: carfentrazone 9.0, alone or with L-glufosinate 150)?
Answer: 16.7%

Question: What about the Control % [15] of the same molecule?
Answer: 12.3%

Question: And the Control % (14 DAA, dose a.i. g/h: carfentrazone 9.0, alone or with L-glufosinate 150)?
Answer: 16.7%

Question: And the Control % [16]?
Answer: 11%

Question: What about the Control % (21 DAA, dose a.i. g/h: carfentrazone 9.0, alone or with L-glufosinate 150) of the same molecule?
Answer: 14%

Question: And the Control % [17]?
Answer: 7.7%

Question: What about the Control % (28 DAA, dose a.i. g/h: carfentrazone 9.0, alone or with L-glufosinate 150) of the same molecule?
Answer: 12.3%

Question: What about the Control % [18] of the same molecule?
Answer: 0%

Question: And the Control % (35 DAA, dose a.i. g/h: carfentrazone 9.0, alone or with L-glufosinate 150)?
Answer: 6.7%

Question: With CP(=O)(O)CC[C@H](N)C(=O)O [L-glufosinate] as the molecule, how does the Control % [14] read?
Answer: 43.3%

Question: And the Control % [15]?
Answer: 41.3%

Question: And the Control % [16]?
Answer: 37.3%

Question: And the Control % [17]?
Answer: 28.3%

Question: What about the Control % [18] of the same molecule?
Answer: 25.3%

Question: What about the “% control” value [12] of the same molecule?
Answer: 50.7%

Question: And the “% control” value [13]?
Answer: 54.3%

Question: And the “% control” value [19]?
Answer: 12.3%

Question: And the “% control” value [20]?
Answer: 50.7%

Question: And the “% control” value [21]?
Answer: 65.0%

Question: What about the “% control” value [22] of the same molecule?
Answer: 64.3%

Question: What about the “% control” value [23] of the same molecule?
Answer: 59.3%

Question: And the “% control” value [24]?
Answer: 54.3%

Question: And the “% control” value [1]?
Answer: 12.3%

Question: What about the “% control” value [2] of the same molecule?
Answer: 50.7%

Question: What about the “% control” value [3] of the same molecule?
Answer: 65.0%

Question: What about the “% control” value [4] of the same molecule?
Answer: 64.3%

Question: What about the “% control” value [5] of the same molecule?
Answer: 59.3%

Question: And the “% control” value [6]?
Answer: 54.3%

Question: And the “% control” value [7]?
Answer: 50.7%

Question: And the “% control” value [8]?
Answer: 65.0%

Question: What about the “% control” value [9] of the same molecule?
Answer: 64.3%

Question: What about the “% control” value [10] of the same molecule?
Answer: 59.3%

Question: And the “% control” value [11]?
Answer: 54.3%

Question: And the “% control” value [25]?
Answer: 12.3%

Question: And the “% control” value [26]?
Answer: 50.7%

Question: And the “% control” value [27]?
Answer: 59.3%

Question: What about the “% control” value [28] of the same molecule?
Answer: 54.3%

Question: And the “% control” value [29]?
Answer: 50.7%

Question: With CCOc1cc(Oc2ccc(C(F)(F)F)cc2Cl)ccc1[N+](=O)[O-] [Oxyfluorfen, oxyfluorfen] as the molecule, how does the Control % [14] read?
Answer: 44%

Question: And the Control % [15]?
Answer: 40%

Question: And the Control % [16]?
Answer: 37%

Question: And the Control % [17]?
Answer: 28.3%

Question: What about the Control % [18] of the same molecule?
Answer: 23.3%

Question: For CC(Oc1ccc(Oc2ncc(C(F)(F)F)cc2Cl)cc1)C(=O)O (stereo not shown) [Haloxyfop, haloxyfop], which “% control” value [29] is on record?
Answer: 25%

Question: Which “% control” value [25] does the source give for CCSC(C)CC1CC(=O)C(/C(CC)=N/OC/C=C/Cl)=C(O)C1 (stereo not shown) [Clethodim, clethodim] here?
Answer: 6.7%

Question: And the “% control” value [26]?
Answer: 15%

Question: What about the “% control” value [27] of the same molecule?
Answer: 81.7%

Question: And the “% control” value [28]?
Answer: 84.3%

Source: patent US20230116080A1, “METHOD FOR CONTROLLING THE GROWTH OF UNDESIRABLE VEGETATION” (UPL Limited, priority 2021, published 2023)
